Assay results published in PubChem BioAssay (NCI).
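Grown in 96-well plates, cells were treated for 48 hours with each compound at five concentrations. Insufficient inhibition: endpoint recorded as highest concentration tested. GI50: concentration for 50% inhibition of growth. The concentration for full growth arrest is given as TGI.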

Assays:
Assay in all cases: growth of human tumour cells (NCI), 48 h
HCT-15 colon = tested on: HCT-15 colon
SK-OV-3 ovarian = tested on: SK-OV-3 ovarian
MALME-3M melanoma = tested on: MALME-3M melanoma
NCI-H460 lung = tested on: NCI-H460 lung
SR leukemia = tested on: SR leukemia
LXFL 529 NSCLC = tested on: LXFL 529 NSCLC
LOX IMVI melanoma = tested on: LOX IMVI melanoma
MOLT-4 leukemia = tested on: MOLT-4 leukemia
SNB-78 CNS = tested on: SNB-78 CNS
SN12C renal = tested on: SN12C renal
OVCAR-3 ovarian = tested on: OVCAR-3 ovarian

Compound | TGI (HCT-15 colon) [µM] | TGI (SK-OV-3 ovarian) [µM] | TGI (MALME-3M melanoma) [µM] | TGI (NCI-H460 lung) [µM] | TGI (SR leukemia) [µM] | TGI (LXFL 529 NSCLC) [µM] | TGI (LOX IMVI melanoma) [µM] | TGI (MOLT-4 leukemia) [µM] | TGI (SNB-78 CNS) [µM] | TGI (SN12C renal) [µM] | TGI (OVCAR-3 ovarian) [µM] | GI50 (OVCAR-3 ovarian) [nM] | GI50 (HCT-15 colon) [nM] | GI50 (SK-OV-3 ovarian) [nM] | GI50 (MALME-3M melanoma) [nM] | GI50 (NCI-H460 lung) [µM] | GI50 (SR leukemia) [nM] | GI50 (LOX IMVI melanoma) [nM] | GI50 (MOLT-4 leukemia) [µM] | GI50 (SN12C renal) [nM]
CC(=O)O[C@]12CCCCCC1C1(O)C(O)CCC[C@H]12 (stereo partly specified) | > 100 | > 100 | > 100 | > 100 | > 100 | > 100 | > 100 | > 100 | > 100 | > 100 | – | – | – | – | – | – | – | – | – | –
O=c1ccc2cc3ccc4cccc5ccc(c2o1)c3c45 | > 100 | 32.6 | > 100 | > 100 | – | > 100 | 55.6 | > 100 | > 100 | > 100 | – | – | – | – | – | – | – | – | – | –
Cc1c2c(n(CCc3ccc(Cl)cc3)c1C)NN=C(C#N)S2(=O)=O | > 100 | > 100 | > 100 | > 100 | > 100 | – | > 100 | > 100 | – | > 100 | > 100 | – | – | – | – | – | – | – | – | –
CCN(CCO)CC1COc2ccccc2O1 (stereo unspecified) | > 100 | > 100 | > 100 | > 100 | > 100 | – | > 100 | > 100 | – | > 100 | > 100 | – | – | – | – | – | – | – | – | –
Oc1ccccc1/C=N/c1nc2cc3sc(/N=C/c4ccccc4O)nc3cc2s1 | > 100 | > 100 | > 100 | > 100 | > 42.1 | – | > 100 | 81.2 | – | > 100 | > 100 | – | – | – | – | – | – | – | – | –
COc1cc2c(cc1-c1c(C)noc1C)cc(C)c(=O)n2Cc1ccccn1 | > 100 | 7.82 | 7.45 | > 100 | > 100 | – | 10.8 | > 100 | – | > 100 | 11.2 | 1800 | 694 | 554 | 1140 | 6 | 709 | 884 | 3.13 | 2910
BrC/C=C/C[P+](c1ccccc1)(c1ccccc1)c1ccccc1 | – | > 100 | > 100 | > 100 | – | 45.1 | 33.5 | > 100 | > 100 | > 100 | 58.7 | – | – | – | – | – | – | – | – | –
c1ccc2sc(SCSc3nc4ccccc4s3)nc2c1 | > 100 | – | > 100 | > 100 | > 100 | – | > 100 | > 100 | – | > 100 | > 100 | – | – | – | – | – | – | – | – | –
CC(O)C1CC1(CO)CNc1cc(Cl)nc(N)n1 (stereo unspecified) | > 100 | > 100 | > 100 | > 100 | > 100 | – | > 100 | > 100 | – | > 100 | > 100 | – | – | – | – | – | – | – | – | –
C1=CC2=CC=CC3c4nc5ccc6ccccc6c5nc4C(=C1)C23 (stereo unspecified) | > 100 | > 100 | > 100 | > 100 | > 100 | – | > 100 | > 100 | – | > 100 | > 100 | – | – | – | – | – | – | – | – | –
O=C1C=CC(=O)N1Nc1ccc([N+](=O)[O-])cc1[N+](=O)[O-] | > 100 | > 100 | 31.1 | > 100 | > 63.1 | > 64.6 | > 100 | > 75.2 | > 100 | > 100 | > 100 | – | – | – | – | – | – | – | – | –
C=C[C@@H]1C(CO)=CCC2[C@H]1CCC1C(C)(C)C(=O)CC[C@]21C (stereo partly specified) | > 100 | > 100 | > 100 | > 100 | > 100 | – | > 100 | > 100 | – | > 100 | > 100 | – | – | – | – | – | – | – | – | –
CS(=O)(=O)OCCn1c(=O)n(CCOS(C)(=O)=O)c(=O)n(CCOS(C)(=O)=O)c1=O | > 100 | > 100 | > 100 | > 100 | > 100 | – | > 100 | > 100 | – | > 100 | > 100 | – | – | – | – | – | – | – | – | –
O=C(NC(Cc1ccc(I)cc1)C(=O)O)c1ccc(I)cc1 (stereo unspecified) | > 100 | > 100 | > 100 | > 100 | – | – | > 100 | > 100 | > 100 | > 100 | 97.4 | – | – | – | – | – | – | – | – | –
CC(C(=O)n1nnc2ccccc21)N(c1ccccc1)c1ccccc1 (stereo unspecified) | > 100 | > 100 | > 100 | > 100 | > 100 | > 100 | > 100 | > 100 | > 100 | > 100 | > 100 | – | – | – | – | – | – | – | – | –
COc1ccc2nc3cc(Cl)ccc3c(NCCCNCCCNc3c4ccc(Cl)cc4nc4ccc(OC)cc34)c2c1 | 1.06 | 0.384 | 1.22 | 0.0131 | 2.73 | – | 0.0145 | > 100 | – | 0.285 | 0.61 | – | – | – | – | – | – | – | – | –
CC1CC[C@@]2(OC1)OC1C[C@H]3[C@@H]4CC[C@H]5CC(OC6OC(CO)C(OC7OC(CO)C(O)C(O)C7OC7OC(CO)C(O)C(O)C7O)C(O)C6O)CCC5(C)[C@H]4CCC3(C)C1[C@@H]2C (stereo partly specified) | 20.3 | 6.04 | 12.5 | 11.6 | 7.95 | – | 5.85 | 3.54 | – | 7.42 | 5.94 | – | – | – | – | – | – | – | – | –
CC(C)/C(Cl)=N\OC(=O)Nc1ccc(C#N)cc1 | 22.6 | 31.1 | 6.81 | 33.4 | > 25.6 | – | 13.2 | 5.41 | – | 26.6 | 30.5 | – | – | – | – | – | – | – | – | –
CCOC(=N)n1c(=O)n(C2=NCCN2)c2ccccc21 | > 100 | > 100 | > 100 | > 100 | > 100 | – | > 100 | > 100 | – | > 100 | > 100 | – | – | – | – | – | – | – | – | –
Nc1c(-c2cccc3ccccc23)c2ccc([N+](=O)[O-])cc2c(=O)n1-c1nc2ccccc2s1 | > 48 | 14.8 | 13.4 | > 100 | > 100 | – | > 35.5 | > 27.5 | – | > 100 | > 37 | – | – | – | – | – | – | – | – | –
COc1ccc(CC(O)CN2CCOCC2)cc1 (stereo unspecified) | > 100 | – | > 100 | > 100 | > 100 | – | > 100 | > 100 | – | > 100 | > 100 | – | – | – | – | – | – | – | – | –
